# Results published in patent US20190359653A1, “SELECTIVE PEPTIDE INHIBITORS OF FRIZZLED” (Genentech, Inc., priority 2016, published 2019).
# Key:
# [1] = system: organoids derived from Lgr5-GFP mice; test: flow cytometry of Lgr5-GFP stem cells in organoids; format: cell-based, mouse; conditions: compared to control DMSO; FIGS. 41A-41C
# Method: The pharmacological effect of dFz7-21 was further investigated by conducting RNA sequencing on intestinal organoid samples that were treated with dFz7-21 for 6 and 24 h. […] Concurrently, there was also an up-regulation of enterocyte markers (pro-differentiation) in the dFz7-21 treated organoids. Among the most down regulated genes upon dFz7-21 treatment were Lgr5, Olfm4 and Asc12. […] Finally, to assess the effect of dFz7-21 directly on stem cells, the presence of GFP+ stem cells in organoids derived from Lgr5-GFP mice was monitored as described in Tian, H. et al. “A reserve stem cell population in small intestine renders Lgr5-positive cells dispensable.” Nature 478, 255-259 (2011). Treatment with dFz7-21 reduced the number of Lgr5-GFP stem cells compared to control DMSO as assayed by flow cytometry (see FIGS. 41A-41C) and confocal microscopy (data not shown). In FIGS. 41A and 41B, Lgr5-GFP organoids were dissociated, treated with SYTOX and analyzed by flow cytometry.
# hFZD7 CRD-His = molecular target: T1, hFZD7 CRD-His (Homo sapiens, UniProt O75084); test: SEC-MALS of hFZD7 CRD-His incubated with peptide; format: binding
# T1 construct: hFZD7 CRD-His [Gln33-Gly168] was expressed as a secreted protein in Trichoplusia ni cells expressing EndoH; made in house; host or cells: Trichoplusia ni cells expressing EndoH, treated with Kifunensine (baculovirus)
# Method: Samples were resolved by a Superdex S200 3.2/300 column (General Electric Healthcare Life Science, Pittsburgh, Pa.; cat. no. 28990946) at 0.15 mL/min in 150 mM NaCl, 50 mM Tris-HCl pH 7.5 buffer with 1% DMSO final concentration. Runs were performed on a 1260 infinity HPLC (Agilent Technology, Santa Clara, Calif.) connected to a Dawn Heleos-II multi-angle static Light Scattering (MALS) detector and a Optilab T-rEX differential Refractive Index (dRI) detector (Wyatt Technologies, Santa Barbara, Calif.).
# Samples were resolved by a Superdex S200 3.2/300 column (General Electric Healthcare Life Science, Pittsburgh, Pa.; 28990946) at a 0.15 mL/min in 150 mM NaCl, 50 mM Tris-HCl pH 7.5 buffer with 1% DMSO final concentration. Column was connected to a 1260 infinity HPLC (Agilent Technology, Santa Clara, Calif.) connected to a Dawn Heleos-II Multi-Angle static Light Scattering (MALS) detector and the Optilab T-rEX differential Refractive Index (dRI) detectors (Wyatt Technologies, Santa Barbara, Calif.).
# [2] = molecular target: T2, Wnt5a binding to FZD7 CRD (Homo sapiens, UniProt O75084); test: ELISA of Wnt5a binding to FZD7 CRD, Fz7-21-derived peptide dimers; conditions: FIGS. 23A-23J
# T2 construct: hFZD7 CRD-Fc (cat no. 6178-FZ); purchased R&D systems 6178-FZ
# Method: 384-well Maxisorp plates (cat. no. 464718; Thermo Scientific) were incubated with 30 μL of Neutravidin (cat. no. 31000, Thermo Scientific; 2 μg/mL in PBS) overnight at 4° C. Plates were then washed with PBST and blocked with PBS/1% BSA for 1 hour at RT and then washed with PBST prior to further processing. The binding assay was conducted in 96 well plates (cat no. 83007-374; VWR) which were blocked with PBS/1% BSA overnight at 4° C. hFZD4 CRD-Fc or hFZD7 CRD-Fc (63 ng/mL) were incubated with either Bio-Wnt3a (25 ng/mL) or Bio-Wnt5a (50 ng/mL) in the presence of 4-fold serial dilutions of the indicated peptide in PBS overnight at 4° C. All assays included hFZD9 CRD-mIgG2A protein as a negative control. hFZD7 CRD-His was suspended in 150 mM NaCl, 50 mM Tris-HCl at pH 7.5 and when used in assays an equal volume of the same buffer control was used. The binding assay mixtures were transferred to the Neutravidin coated plates and incubated for ˜1 h at RT. […] The signal was developed with the addition of TMB reagent (following the manufacturer's recommendation; KPL; 50-76-00) for 15 min prior to the addition of an equal volume of 1 M phosphoric acid for 10 min Absorbance was measured at 450 nm using a Tekan M1000 plate reader. […]
Sequence,number of Lgr5-GFP stem cells [1],"ΔMW (kDa) (hFZD7 CRD-His; 1:10, relative to the DMSO control)",MW (kDa) (hFZD7 CRD-His; protein:peptide 1:10),effect on recruitment of Wnt5a to FZD7 CRD [2]
LPSDDLEFWCHVMY [dFz7-21],reduced,–,–,–
"LPSDDLEFWSHVMY [Fz7-21S, negative control]",–,2.6,23.5,no effect
